The values that follow come from ChEMBL document CHEMBL5131525, “Novel CFTR Modulators for Treating Cystic Fibrosis” (ACS Med Chem Lett, 2022).

By EC50 is commonly meant the midpoint of the concentration-response curve.

The target of this assay is Cystic fibrosis transmembrane conductance regulator (Homo sapiens, UniProt P13569, F508DEL). In words: Modulation of CFTR F508 deletion mutant expressed in HBE cells assessed as change in short circuit current incubated for 18 to 24 hrs in presence of forskolin, amiloride and human serum by voltage-clamp based chamber assay. The assay is classed as cell-based.
Sequence of Cystic fibrosis transmembrane conductance regulator (P13569 as listed by the source): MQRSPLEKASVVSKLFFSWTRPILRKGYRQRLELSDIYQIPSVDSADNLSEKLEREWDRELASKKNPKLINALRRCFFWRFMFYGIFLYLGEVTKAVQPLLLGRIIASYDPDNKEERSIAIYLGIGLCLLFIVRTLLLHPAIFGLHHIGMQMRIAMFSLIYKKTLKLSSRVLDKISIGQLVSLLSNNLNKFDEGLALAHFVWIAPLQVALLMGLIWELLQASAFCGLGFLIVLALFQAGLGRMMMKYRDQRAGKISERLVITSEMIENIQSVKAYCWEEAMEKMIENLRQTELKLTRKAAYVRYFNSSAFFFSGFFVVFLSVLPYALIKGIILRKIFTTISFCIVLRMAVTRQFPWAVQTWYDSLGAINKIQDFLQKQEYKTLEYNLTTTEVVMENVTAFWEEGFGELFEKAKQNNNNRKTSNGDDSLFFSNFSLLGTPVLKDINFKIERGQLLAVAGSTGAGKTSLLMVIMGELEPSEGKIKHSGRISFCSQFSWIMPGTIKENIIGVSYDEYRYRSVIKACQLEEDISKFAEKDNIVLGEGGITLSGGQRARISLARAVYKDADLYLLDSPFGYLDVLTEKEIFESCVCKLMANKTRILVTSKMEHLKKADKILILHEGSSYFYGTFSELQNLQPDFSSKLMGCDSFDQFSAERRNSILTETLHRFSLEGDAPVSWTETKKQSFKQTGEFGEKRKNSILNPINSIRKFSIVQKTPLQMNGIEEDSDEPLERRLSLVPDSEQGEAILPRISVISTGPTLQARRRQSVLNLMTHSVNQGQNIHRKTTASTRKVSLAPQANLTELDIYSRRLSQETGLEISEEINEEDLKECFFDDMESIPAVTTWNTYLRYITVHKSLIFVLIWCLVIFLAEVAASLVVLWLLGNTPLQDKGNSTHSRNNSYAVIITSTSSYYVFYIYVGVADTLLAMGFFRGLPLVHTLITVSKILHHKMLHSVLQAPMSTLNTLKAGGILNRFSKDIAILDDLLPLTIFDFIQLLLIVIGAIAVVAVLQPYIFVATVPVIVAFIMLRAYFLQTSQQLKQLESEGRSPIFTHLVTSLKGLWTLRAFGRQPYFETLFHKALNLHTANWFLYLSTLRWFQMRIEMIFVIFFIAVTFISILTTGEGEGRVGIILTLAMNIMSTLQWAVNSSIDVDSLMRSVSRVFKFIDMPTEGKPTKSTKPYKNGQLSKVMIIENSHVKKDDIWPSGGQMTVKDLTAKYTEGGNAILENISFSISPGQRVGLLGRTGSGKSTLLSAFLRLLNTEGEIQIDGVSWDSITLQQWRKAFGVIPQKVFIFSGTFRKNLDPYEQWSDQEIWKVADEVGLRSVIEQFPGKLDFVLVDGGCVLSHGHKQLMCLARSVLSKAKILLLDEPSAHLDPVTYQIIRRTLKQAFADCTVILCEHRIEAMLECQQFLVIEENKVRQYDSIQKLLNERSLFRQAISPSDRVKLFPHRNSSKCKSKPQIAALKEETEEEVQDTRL

Turning to `[2H]C1CC[C@@H](C)Oc2nc(c(N)cc2C(F)(F)F)C2=NN=C(O2)[C@@](O)(C(F)(F)F)CC1[2H]` (stereo partly specified), the EC50 is less than 500 nM.

Take `C[C@H]1CCCCC[C@](O)(C(F)(F)F)C2=NN=C(O2)c2nc(c(C(F)(F)F)cc2N)O1`: the EC50 is less than 500 nM.

In the case of `Nc1cc(C(F)(F)F)c2nc1-c1nnc(o1)C(O)(C(F)(F)F)CCCCCCO2` (stereo unspecified), the EC50 was less than 500 nM.

For `Nc1cc(C(F)(F)F)c2nc1-c1nnc(o1)[C@@](O)(C(F)(F)F)CCCCCCS2`, the EC50 was less than 500 nM.

With `Nc1cc(C(F)(F)F)c2nc1-c1nnc(o1)[C@@](O)(C(F)(F)F)CCCCC[C@H](CO)O2`, the EC50 is less than 500 nM.

Turning to `CC1(C)CCCC[C@](O)(C(F)(F)F)C2=NN=C(O2)c2nc(c(C(F)(F)F)cc2N)OC1`, the EC50 is less than 500 nM.
